Where two headings read alike, the source gives them in different places.

The target of data set [1] is Anti-morphine antibody (ab1060). It is filed as binding, mouse. As to conditions: 0.25 nM MorHap-Cy5, 10 nM ab1060, 4000 nM competitor. As to the method: (§1) The MST measurements were done on a Monolith™ NT.115^Pico instrument from NanoTemper Technologies GmbH. The instrument was equipped with an IR laser (wavelength, 1475 ± 15 nm; power, 120 mW maximum) and a red fluorescence channel that can detect red dyes, such as Cy5 and Alexa Fluor 647. The samples were measured at an LED power of 20% and an MST power of 25% with a laser-on time of 30 s and a laser-off time of 5 s. MST measurements of 15–16 samples typically take ~ 20 min.
In the competition MST procedures, a constant concentration of MorHap-Cy5:antibody complex was titrated with an increasing concentration of drug competitor. […] The software plots Fnorm against 15–16 increasing drug competitor concentration points to yield the binding curve, and subsequently fits the curve to obtain the IC50. For presentation purposes, the fraction bound was manually calculated and plotted using the equation above where x is the Fnorm at a given competitor concentration. The binding affinities (Ki) from the heterologous MST assays were then derived using the Ki-Finder software from the Nanotemper website. […]

Data set [2] has as its target 6-AmHap-Abs. The class given is binding, mouse. As to conditions: for Ki: read-out: Heterologous MST Ki; for IC50: read-out: Heterologous MST IC50. As to the method: The final concentrations of 6-AmHap-Abs, MorHap-Cy5 in the capillaries were 10 nM and 0.25 nM, respectively. The same procedure was performed for the binding of the 6-AmHap-Abs to the other drugs but different concentrations of competitor working solutions were used.
For the heroin-binding assay in the presence of esterase inhibitors, a working solution containing 6-AmHap antibody (40 nM) and 80 μM iso-OMPA/80 μM BNPP was incubated for 2 h at RT. An equal volume of MorHap-Cy5 (1 nM) was then mixed with the 6-AmHap-Abs/iso-OMPA/BNPP mixture and the reaction mixture was further incubated for 20 min in the dark at RT. The rest of the procedure was performed as described above. The final concentrations of 6-AmHap-Abs, iso-OMPA/BNPP, and MorHap-Cy5 in the capillaries were 10 nM, 20 μM/20 μM, and 0.25 nM, respectively.
as §1
In the competition MST procedures, a constant concentration of MorHap-Cy5:antibody complex was titrated with an increasing concentration of drug competitor. […] The software plots Fnorm against 15–16 increasing drug competitor concentration points to yield the binding curve, and subsequently fits the curve to obtain the IC50. For presentation purposes, the fraction bound was manually calculated and plotted using the equation above where x is the Fnorm at a given competitor concentration. The binding affinities (Ki) from the heterologous MST assays were then derived using the Ki-Finder software from the Nanotemper website. In order to calculate the Ki, the following parameters must be entered into the Ki-Finder website: the binding affinity of the tracer against the antibody (Kd), the concentration of the antibody (I0), the concentration of the tracer (labeled T0), the highest concentration of the competitor (L0), and the IC50 of the competitor to the antibody. The website then plots both the binding curve and competition curve to produce the competitor Ki, also known as the Kd of the antibody to the drug competitor.

Data set [3] has as its system 6-AmHap-Abs. The class given is binding, mouse. As to conditions: read-out: Competition ELISA Heterologous, IC50.
Data set [4] has as its system 6-AmHap-Abs. As to conditions: ref Sulima et al [3]; read-out: Competition ELISA Homologous, IC50; cited from earlier work.
The conditions of data set [5]: degradation of heroin in humans, Fig. 1a; cited from earlier work.
Data set [6] addresses 6-AmHap-Abs. The class given is binding, mouse. As to conditions: read-out: Kd of 6-AmHap-Abs derived from ED-UPLC/MS/MS; post-immune serum diluted 1:1600, 5 nM D3-tracer.
Experimental: Post-immune sera (week 8) from the mouse study described by Sulima et al. [12] were used in this study. […] Briefly, post-immune serum was diluted in DPBS (1:1600). Dialysis buffer was prepared by diluting the corresponding pre-immune serum (week 0) in DPBS (1:1600). […] A 100-μL dilution of week 8 serum containing 5 nM D3-tracer was pipetted into the sample chamber, and a 300-μL aliquot of the competitive inhibitor solution was added to the buffer chamber. Both week 8 and week 0 were run against each other at the same sera dilutions. For negative controls, the same setup was employed except both sides of the dialysis chamber contained only week 0 serum. Equilibrium dialysis, preparation of samples for UPLC/MS/MS, and calculation of Kd were performed as described [13].
The antibody binding site concentration was derived from Müller’s equation [17] and was calculated using the following formula: Abt=bTt+b×Kd/1−b where [Abt] is the total concentration of the antibody binding sites, b is the fraction of bound D3-tracer in the absence of competitive inhibitor, [Tt] is the total molar concentration of the D3-tracer after equilibrium, and Kd is the apparent dissociation constant.
The mark [7] stands for this setting: 0.25 nM MorHap-Cy5, 10 nM antibody binding sites, without esterase inhibitors, […].
The mark [8] stands for this setting: 0.25 nM MorHap-Cy5, 10 nM antibody binding sites, without esterase inhibitors.

For `CN1CC[C@]23c4c5ccc(O)c4O[C@H]2[C@H](NC(=O)CCSCC(N)=O)C=C[C@H]3[C@H]1C5` [MorHap-acetamide], in data set [1], the inhibitory constant (Ki) is 14 ± 7.97 nM.

In the case of `COC1=CC=C2[C@H]3Cc4ccc(OC)c5c4[C@@]2(CCN3C)[C@H]1O5` [Thebaine, thebaine], in data set [2] (setting [7]), the Ki amounted to 13.1 ± 5.47 nM. The IC50 in data set [2] (setting [8]) came to 35.6 ± 0.91 nM.

With `C[N+]1([O-])CC[C@]23c4c5ccc(O)c4O[C@H]2[C@@H](O)C=C[C@H]3[C@H]1C5` (stereo partly drawn) [Morphine N-Oxide, morphine N-oxide], the Ki in data set [2] (setting [7]) turned out to be 6460 ± 4780 nM. Besides, the IC50 in data set [2] (setting [8]) came out at 12651 ± 1.33 nM.

With `CN1CCCCC1` [N-Methylpiperidine, N-methylpiperidine], the “Heterologous MST IC50” value in data set [2] (setting [8]) is listed as “No binding”. For the same compound, the “Heterologous MST Ki” value was “No binding” in data set [2] (setting [7]) and “Neither acetanilide nor N-methylpiperidine bound” in data set [2] (0.25 nM MorHap-Cy5, 10 nM antibody binding sites, without esterase inhibitors, […], listed as N-methylpiperidine).

`CN1CC[C@]23c4c5ccc(O)c4O[C@H]2C(=O)CC[C@@]3(O)[C@H]1C5` [Oxymorphone, oxymorphone]: the results for the IC50 in data set [3], in data set [2] (setting [8]) and in data set [4] were 2430 ± 864 nM, 598.1 ± 0.95 nM and 125000 ± 28600 nM, respectively. In addition, the Ki in data set [2] (setting [7]) worked out at 251 ± 7 nM.

For `Oc1ccc2c3c1O[C@H]1[C@@H](O)C=C[C@H]4[C@@H](C2)NCC[C@@]341` [Normorphine, normorphine], the 50% inhibitory concentration (IC50) in data set [3] is 3220 ± 2000 nM; in data set [2] (setting [8]), 136 ± 0.94 nM; in data set [4], 112000 ± 22300 nM. In data set [2] (setting [7]), the Ki turned out to be 55.1 ± 7.58 nM.

For the compound `C=CCN1CC[C@]23c4c5ccc(O)c4O[C@H]2[C@@H](O)C=C[C@H]3[C@H]1C5` [Nalorphine, nalorphine], in data set [2] (setting [7]), the Ki was determined as 2.93 ± 0.98 nM. Further, the IC50 in data set [2] (setting [8]) was 10.6 ± 0.89 nM.

Take `CN1CC[C@]23c4c5ccc(O[C@@H]6O[C@H](C(=O)O)[C@@H](O)[C@H](O)[C@H]6O)c4O[C@H]2[C@@H](O)C=C[C@H]3[C@H]1C5` [M-3G, morphine-3-β-glucuronide]: the t1/2 in data set [5] is 4.5 h. The IC50 in data set [3] was 23.2 ± 7.33 nM; in data set [2] (setting [8]) it was 69.1 ± 1.24 nM; in data set [4], 28000 ± 11400 nM. In data set [2] (setting [7]), the Ki is 27.9 ± 4.14 nM.

Consider `CN1CC[C@]23c4c5ccc(O)c4O[C@H]2CCC[C@H]3[C@H]1C5` [Desomorphine, desomorphine], for which, in data set [2], the IC50 came out at 9.07 ± 0.73 nM and the Ki was determined as 0.9 ± 0.64 nM.

Consider `CN1CC[C@]23c4c5ccc(O)c4O[C@H]2[C@@H](O[C@@H]2O[C@H](C(=O)O)[C@@H](O)[C@H](O)[C@H]2O)C=C[C@H]3[C@H]1C5` [M-6G, morphine-6-β-glucuronide], for which the t1/2 in data set [5] was 4.60 h. In addition, the 50% inhibitory concentration (IC50) was 11.3 ± 2.16 nM in data set [3], 5.88 ± 1.22 nM in data set [2] (setting [8]) and 25000 ± 12100 nM in data set [4]. The Ki in data set [2] (setting [7]) was determined as 0.66 ± 0.9 nM.

In the case of 6-acetylmorphine [6-AM], the t1/2 in data set [5] was 0.367 to 0.433 h. Moreover, the IC50 in data set [3] is 19.8 ± 6.33 nM; in data set [2] (setting [8]) it was 6.75 ± 1.17 nM; in data set [4] it was 3720 ± 700 nM. In addition, in data set [6], the Kd worked out at 0.53 ± 0.28 nM. The Ki in data set [2] (setting [7]) was found to be 0.44 ± 0.33 nM.

On to `CN1CC[C@]23CCCC[C@H]2[C@H]1Cc1ccc(O)cc13` [Levorphanol, levorphanol], for which the values for the half-maximal inhibitory concentration (IC50) in data set [3], in data set [2] (setting [8]) and in data set [4] were 341 ± 138 nM, 33.7 ± 0.91 nM and 3390 ± 900 nM, respectively. For the same compound, the Ki in data set [2] (setting [7]) is 11.6 ± 4.41 nM.

In the case of `CN1CC[C@]23c4c5ccc(O)c4O[C@H]2[C@@H](O)C=C[C@H]3[C@H]1C5O` (stereo partly drawn) [10-Hydroxymorphine, 10-hydroxymorphine], the Ki in data set [2] (setting [7]) came to 18.4 ± 5.78 nM. For the same compound, the IC50 in data set [2] (setting [8]) was determined as 51.2 ± 0.72 nM.

For `CC(=O)Nc1ccccc1` [Acetanilide, acetanilide], in data set [2] (setting [8]), the “Heterologous MST IC50” value is reported as “No binding”. For the same compound, the “Heterologous MST Ki” value is “No binding” in data set [2] (setting [7]) and “Neither acetanilide nor N-methylpiperidine bound” in data set [2] (0.25 nM MorHap-Cy5, 10 nM antibody binding sites, without esterase inhibitors, […], listed as acetanilide).
